# Assay results published in patent publication US6992079B2, “Substituted 11-phenyl-dibenzazepine compounds useful for the treatment or prevention of diseases characterized by abnormal cell proliferation” (President Fellows of Harvard College, priority 1997, dated 2006).
# Like-named read-outs stand apart in the source and are kept apart here.
# How the values were obtained:
# [1] = test system: MDA-MB-23; test: SRB antiproliferative assay; format: cell-based; conditions: Homo sapiens; MDA-MB-23 (Breast); SRB; 5% FCS/5 day incubation; read-out: IC50
# Description: (§1) The cells were passaged using Trypsin (Gibco).
# [2] = test system: MMRU; test: SRB antiproliferative assay; format: cell-based; conditions: Homo sapiens, MMRU (Melanoma), 5% FCS/5 day incubation
# Description: as §1
# [3] = test system: RL-60 (TS); test: In-Vitro Testing SRB panel: Leukemia; format: cell-based
# [4] = test system: MOLT-4; test: In-Vitro Testing SRB panel: Leukemia; format: cell-based
# [5] = test system: HCT-15; test: In-Vitro Testing SRB panel: Colon Cancer; format: cell-based
# [6] = test system: LOX IMVI; test: In-Vitro Testing SRB panel: Melanoma; format: cell-based
# [7] = test system: MALM-3M; test: In-Vitro Testing SRB panel: Melanoma; format: cell-based
# [8] = test system: M14; test: In-Vitro Testing SRB panel: Melanoma; format: cell-based
# [9] = test system: SK-MEL-5; test: In-Vitro Testing SRB panel: Melanoma; format: cell-based
# [10] = test system: UACC-62; test: In-Vitro Testing SRB panel: Melanoma; format: cell-based
# [11] = test system: 786-0; test: In-Vitro Testing SRB panel: Renal Cancer; format: cell-based
# [12] = test system: A498; test: In-Vitro Testing SRB panel: Renal Cancer; format: cell-based
# [13] = test system: RXF 393; test: In-Vitro Testing SRB panel: Renal Cancer; format: cell-based
# [14] = test system: MC-F7; test: In-Vitro Testing SRB panel: Breast Cancer; format: cell-based
# [15] = test system: NCI/ADR-RES; test: In-Vitro Testing SRB panel: Breast Cancer; format: cell-based
# [16] = test system: MDA-MB-231/ATCC; test: In-Vitro Testing SRB panel: Breast Cancer; format: cell-based
# [17] = test system: HS 578T; test: In-Vitro Testing SRB panel: Breast Cancer; format: cell-based; conditions: HS 578T
# [18] = test system: ERVX
# [19] = Homo sapiens, read-out: LC50 (the source's name)
smiles,measurement,setting,value
COc1ccc2c(c1)CN(C(=O)c1ccc([N+](=O)[O-])cc1)c1ccc(Cl)cc1C2c1ccccc1Cl (stereo not drawn) [Compound 30],IC50,[1],0.9 µM
same,IC50,[2],0.5 µM
same,GI50,[3]; Homo sapiens,0.297 µM
same,CC50,"[3]; Homo sapiens, RL-60 (TB), read-out: LC50 (the source's name)",> 100 µM
same,TGI,[3]; RL-60 (TB),>1.00E−04 Molar
same,Percent Growth,"[3]; RL-60 (TB), Log10 concentration −4.0 Molar",29%
same,Percent Growth,"[3]; RL-60 (TB), Log10 concentration −5.0 Molar",22%
same,Percent Growth,"[3]; RL-60 (TB), Log10 concentration −6.0 Molar",35%
same,Percent Growth,"[3]; RL-60 (TB), Log10 concentration −7.0 Molar",64%
same,Percent Growth,"[3]; RL-60 (TB), Log10 concentration −8.0 Molar",94%
same,GI50,"[4]; Homo sapiens, MOLT-4",1.33 µM
same,CC50,"[4]; Homo sapiens, MOLT-4, read-out: LC50 (the source's name)",> 100 µM
same,TGI,[4]; MOLT-4,>1.00E−04 Molar
same,Percent Growth,"[4]; MOLT-4, Log10 concentration −4.0 Molar",13%
same,Percent Growth,"[4]; MOLT-4, Log10 concentration −5.0 Molar",23%
same,Percent Growth,"[4]; MOLT-4, Log10 concentration −6.0 Molar",54%
same,Percent Growth,"[4]; MOLT-4, Log10 concentration −7.0 Molar",89%
same,Percent Growth,"[4]; MOLT-4, Log10 concentration −8.0 Molar",103%
same,TGI,[5]; HCT-15,>1.00E−04 Molar
same,Percent Growth,"[5]; HCT-15, Log10 concentration −4.0 Molar",39%
same,Percent Growth,"[5]; HCT-15, Log10 concentration −5.0 Molar",40%
same,Percent Growth,"[5]; HCT-15, Log10 concentration −6.0 Molar",77%
same,Percent Growth,"[5]; HCT-15, Log10 concentration −7.0 Molar",98%
same,Percent Growth,"[5]; HCT-15, Log10 concentration −8.0 Molar",109%
same,GI50,"[5]; Homo sapiens, HCT-15",5.28 µM
same,CC50,"[5]; Homo sapiens, HCT-15, read-out: LC50 (the source's name)",> 100 µM
same,TGI,[6],>1.00E−04 Molar
same,GI50,[6]; Homo sapiens,4.3 µM
same,CC50,[6]; [19],> 100 µM
same,Percent Growth,[6]; Log10 concentration −4.0 Molar,35%
same,Percent Growth,[6]; Log10 concentration −5.0 Molar,26%
same,Percent Growth,[6]; Log10 concentration −6.0 Molar,91%
same,Percent Growth,[6]; Log10 concentration −7.0 Molar,103%
same,Percent Growth,[6]; Log10 concentration −8.0 Molar,98%
same,GI50,[7]; Homo sapiens,0.342 µM
same,CC50,"[7]; Homo sapiens, MALM-3M, read-out: LC50 (the source's name)",> 100 µM
same,TGI,[7]; MALM-3M,8.35E−05 Molar
same,Percent Growth,"[7]; MALM-3M, Log10 concentration −4.0 Molar",−4%
same,Percent Growth,"[7]; MALM-3M, Log10 concentration −5.0 Molar",49%
same,Percent Growth,"[7]; MALM-3M, Log10 concentration −6.0 Molar",16%
same,Percent Growth,"[7]; MALM-3M, Log10 concentration −7.0 Molar",82%
same,Percent Growth,"[7]; MALM-3M, Log10 concentration −8.0 Molar",96%
same,GI50,"[8]; Homo sapiens, M14",0.045 µM
same,CC50,"[8]; Homo sapiens, M14, read-out: LC50 (the source's name)",> 100 µM
same,TGI,[8]; M14,>1.00E−04 Molar
same,Percent Growth,"[8]; M14, Log10 concentration −4.0 Molar",30%
same,Percent Growth,"[8]; M14, Log10 concentration −5.0 Molar",37%
same,Percent Growth,"[8]; M14, Log10 concentration −6.0 Molar",75%
same,Percent Growth,"[8]; M14, Log10 concentration −7.0 Molar",93%
same,Percent Growth,"[8]; M14, Log10 concentration −8.0 Molar",99%
same,GI50,"[9]; Homo sapiens, SK-MEL-5",3.95 µM
same,CC50,"[9]; Homo sapiens, SK-MEL-5, read-out: LC50 (the source's name)",> 100 µM
same,TGI,[9]; SK-MEL-5,>1.00E−04 Molar
same,Percent Growth,"[9]; SK-MEL-5, Log10 concentration −4.0 Molar",12%
same,Percent Growth,"[9]; SK-MEL-5, Log10 concentration −5.0 Molar",26%
same,Percent Growth,"[9]; SK-MEL-5, Log10 concentration −6.0 Molar",85%
same,Percent Growth,"[9]; SK-MEL-5, Log10 concentration −7.0 Molar",90%
same,Percent Growth,"[9]; SK-MEL-5, Log10 concentration −8.0 Molar",93%
same,GI50,"[10]; Homo sapiens, UACC-62",> 100 µM
same,CC50,"[10]; Homo sapiens, UACC-62, read-out: LC50 (the source's name)",> 100 µM
same,TGI,[10]; UACC-62,>1.00E−04 Molar
same,Percent Growth,"[10]; UACC-62, Log10 concentration −4.0 Molar",56%
same,Percent Growth,"[10]; UACC-62, Log10 concentration −5.0 Molar",52%
same,Percent Growth,"[10]; UACC-62, Log10 concentration −6.0 Molar",58%
same,Percent Growth,"[10]; UACC-62, Log10 concentration −7.0 Molar",93%
same,Percent Growth,"[10]; UACC-62, Log10 concentration −8.0 Molar",97%
same,TGI,[11]; 786-0,>1.00E−04 Molar
same,Percent Growth,"[11]; 786-0, Log10 concentration −4.0 Molar",28%
same,Percent Growth,"[11]; 786-0, Log10 concentration −5.0 Molar",11%
same,Percent Growth,"[11]; 786-0, Log10 concentration −6.0 Molar",92%
same,Percent Growth,"[11]; 786-0, Log10 concentration −7.0 Molar",98%
same,Percent Growth,"[11]; 786-0, Log10 concentration −8.0 Molar",98%
same,GI50,"[11]; Homo sapiens, 786-0",3.28 µM
same,CC50,"[11]; Homo sapiens, 786-0, read-out: LC50 (the source's name)",> 100 µM
same,TGI,[12]; A498,>1.00E−04 Molar
same,Percent Growth,"[12]; A498, Log10 concentration −4.0 Molar",54%
same,Percent Growth,"[12]; A498, Log10 concentration −5.0 Molar",64%
same,Percent Growth,"[12]; A498, Log10 concentration −6.0 Molar",87%
same,Percent Growth,"[12]; A498, Log10 concentration −7.0 Molar",102%
same,Percent Growth,"[12]; A498, Log10 concentration −8.0 Molar",95%
same,GI50,"[12]; Homo sapiens, A498",> 100 µM
same,CC50,"[12]; Homo sapiens, A498, read-out: LC50 (the source's name)",> 100 µM
same,GI50,"[13]; Homo sapiens, RXF 393",3.4 µM
same,CC50,"[13]; Homo sapiens, RXF 393, read-out: LC50 (the source's name)",> 100 µM
same,TGI,[13]; RXF 393,>1.00E−04 Molar
same,Percent Growth,"[13]; RXF 393, Log10 concentration −4.0 Molar",20%
same,Percent Growth,"[13]; RXF 393, Log10 concentration −5.0 Molar",23%
same,Percent Growth,"[13]; RXF 393, Log10 concentration −6.0 Molar",81%
same,Percent Growth,"[13]; RXF 393, Log10 concentration −7.0 Molar",97%
same,Percent Growth,"[13]; RXF 393, Log10 concentration −8.0 Molar",90%
same,GI50,"[14]; Homo sapiens, MCF7",5.38 µM
same,CC50,"[14]; Homo sapiens, MCF7, MC-F7, read-out: LC50 (the source's name)",> 100 µM
same,TGI,[14]; MC-F7,>1.00E−04 Molar
same,Percent Growth,"[14]; MC-F7, Log10 concentration −4.0 Molar",33%
same,Percent Growth,"[14]; MC-F7, Log10 concentration −5.0 Molar",36%
same,Percent Growth,"[14]; MC-F7, Log10 concentration −6.0 Molar",88%
same,Percent Growth,"[14]; MC-F7, Log10 concentration −7.0 Molar",106%
same,Percent Growth,"[14]; MC-F7, Log10 concentration −8.0 Molar",102%
same,TGI,[15],>1.00E−04 Molar
same,GI50,[15]; Homo sapiens,62.4 µM
same,CC50,[15]; [19],> 100 µM
same,Percent Growth,[15]; Log10 concentration −4.0 Molar,47%
same,Percent Growth,[15]; Log10 concentration −5.0 Molar,61%
same,Percent Growth,[15]; Log10 concentration −6.0 Molar,104%
same,Percent Growth,[15]; Log10 concentration −7.0 Molar,117%
same,Percent Growth,[15]; Log10 concentration −8.0 Molar,124%
same,GI50,"[16]; Homo sapiens, MDA-MB-231",> 100 µM
same,CC50,"[16]; Homo sapiens, MDA-MB-231/ATCC, read-out: LC50 (the source's name)",> 100 µM
same,TGI,[16]; MDA-MB-231/ATCC,>1.00E−04 Molar
same,Percent Growth,"[16]; MDA-MB-231/ATCC, Log10 concentration −4.0 Molar",54%
same,Percent Growth,"[16]; MDA-MB-231/ATCC, Log10 concentration −5.0 Molar",54%
same,Percent Growth,"[16]; MDA-MB-231/ATCC, Log10 concentration −6.0 Molar",89%
same,Percent Growth,"[16]; MDA-MB-231/ATCC, Log10 concentration −7.0 Molar",92%
same,Percent Growth,"[16]; MDA-MB-231/ATCC, Log10 concentration −8.0 Molar",106%
same,TGI,[17],>1.00E−04 Molar
same,Percent Growth,[17]; Log10 concentration −4.0 Molar,11%
same,Percent Growth,[17]; Log10 concentration −5.0 Molar,51%
same,Percent Growth,[17]; Log10 concentration −6.0 Molar,30%
same,Percent Growth,[17]; Log10 concentration −7.0 Molar,91%
same,Percent Growth,[17]; Log10 concentration −8.0 Molar,87%
same,CC50,[17]; [19],> 100 µM
same,TGI,[18]; ERVX,>1.00E−04 Molar
same,Percent Growth,"[18]; ERVX, Log10 concentration −4.0 Molar",18%
same,Percent Growth,"[18]; ERVX, Log10 concentration −5.0 Molar",23%
same,Percent Growth,"[18]; ERVX, Log10 concentration −6.0 Molar",78%
same,Percent Growth,"[18]; ERVX, Log10 concentration −7.0 Molar",96%
same,Percent Growth,"[18]; ERVX, Log10 concentration −8.0 Molar",92%
same,GI50,[18]; Homo sapiens,3.24 µM
same,CC50,"[18]; Homo sapiens, read-out: LC50",> 100 µM
